Results as given in patent US20180280450A1, “METHOD OF PROMOTING IMMUNE HEALTH USING THE WATER-SOLUBLE COMPONENT FROM GENUS EUGLENA ORGANISM” (KEMIN INDUSTRIES, INC., priority 2017, published 2018).

Experiments:
[1] = system: human immune cells; assay: In vitro bioassay screening of Test Products in cell cultures of human immune cells (overall summary); assay type: cell-based; conditions: sample preparation after 0.2 micron filtration
Method: Bioassay screening of nutraceutical ingredients and one blend were performed to evaluate their potency and mechanisms of action. The screening involved testing in cell cultures involving human immune cells. As part of this process, selected immune ingredients currently on the market were compared for similarities and differences of mechanisms of action, as well as efficacy (active dose comparison). Eight Test Products labeled Test Products A-H, as noted in the various tables and explained below were employed in this study.
The water-soluble Test Products were prepared by taking 0.25 grams of powder into 5 mL of physiological saline. The suspension was incubated under gentle agitation for one hour, after which any remaining solids were removed by centrifugation. Insoluble, particulate Test Products were prepared by taking 0.5 grams of powder into 3 mL of physiological saline. One (1) mL ceramic beads (200 uM zirconium) were added, and bead milling performed by 10 cycles of repeated 60-second pulsing (vortex high speed, 60 one (1) second pulses) with placement of samples in an ice-bath between cycles. Subsequently, seven (7) mL of physiological saline was then added to bring the samples to a 50 mg/mL final concentration. […]

[2] = Solubility in water; assay type: physicochemical
[3] = system: monocytes; assay: Immune cell activation by flow cytometry (CD69) on monocytes in PBMC cultures; assay type: cell-based, human; conditions: dose not specified
Method: (§1) Human peripheral blood mononuclear cell (PBMC) cultures were used for this testing. A set of cultures was left untreated as negative control cultures for immune activation. Triplicate sets of cultures were treated with serial dilutions of the test product. The inflammatory bacterial lipopolysaccharide LPS from E. coli was used as a positive control for activation. The cultures were incubated for 24 hours, after which the cells and the culture supernatants were harvested and used to monitor the reactions in each culture. […]
(§2) The cells were stained with a combination of monoclonal antibodies to monitor activation status, and analyzed by multi-parameter flow cytometry, using an acoustic dual-laser Attune® flow cytometer. […]
(§3) Immune cell activation was analyzed after the cell viability testing. […] The cells were stained with a combination of monoclonal antibodies to monitor activation, and analyzed by multi-parameter flow cytometry, using an acoustic dual laser Attune® flow cytometer. […]
(§4) The cellular staining for activation, performed using a fluorescently labelled monoclonal antibody to the CD69 and CD25 activation markers, allowed researchers to measure cellular activation by fluorescence intensity. […]

[4] = system: non-T non-NK lymphocytes; assay: Immune cell activation by flow cytometry (CD69/CD25) on non-T non-NK lymphocytes in PBMC cultures; assay type: cell-based, human; conditions: 24-hour PBMC cultures
Method: as §1, §2, §3, §4

[5] = system: T-cells; assay: Immune cell activation by flow cytometry (CD69/CD25) on T-cells in PBMC cultures; assay type: cell-based, human; conditions: 24-hour PBMC cultures
Method: as §1, §2, §3, §4

[6] = system: CD69/CD25 double positive lymphocytes; assay: CD69/CD25 double positive lymphocytes by flow cytometry in PBMC cultures; assay type: cell-based, human; conditions: 24-hour PBMC cultures, dose not specified
Method: as §1, §2, §3, §4

paramylon [Test Product D]
activity in the in vitro screen (overall) [1]: essentially no activity
activity in the in vitro screen (overall) ([1]; listed as Sample D): essentially inactive
solubility in water [2]: completely insoluble
CD69 expression on monocytes [3]: only exerted minor, if any, effects
CD69 expression on non-T non-NK cells ([4]; dose not specified (FIG. 19)): only exerted minor, if any, effects
CD25 expression on non-T non-NK cells ([4]; FIG. 21 shows CD25): only exerted minor, if any, effects
CD25 expression on T-cells ([5]; at lower doses): varying degrees of suppressing CD25 expression
CD69 expression on T-cells ([5]; figures show T-cells): only exerted minor effects
number of CD69/CD25 double-positive lymphocytes [6]: only exerted minor, if any, effects
